One block for each molecule: values may come before it.
How the values were obtained:
[1] = target: ALK tyrosine kinase receptor (Homo sapiens, UniProt Q9UM73); assay: Selectivity interaction (Millipore kinase profiler) EUB0000124b ALK; details: at 10 µM
[2] = target: T1, Cyclin-G-associated kinase (Homo sapiens) (UniProt O14976); assay: Selectivity interaction (Ambit KINOMEscan and KiNATiv profiling in Jurkat cells) EUB0000090b GAK; assay type: cell-based; details: at 1 µM
T1 sequence (whole entry): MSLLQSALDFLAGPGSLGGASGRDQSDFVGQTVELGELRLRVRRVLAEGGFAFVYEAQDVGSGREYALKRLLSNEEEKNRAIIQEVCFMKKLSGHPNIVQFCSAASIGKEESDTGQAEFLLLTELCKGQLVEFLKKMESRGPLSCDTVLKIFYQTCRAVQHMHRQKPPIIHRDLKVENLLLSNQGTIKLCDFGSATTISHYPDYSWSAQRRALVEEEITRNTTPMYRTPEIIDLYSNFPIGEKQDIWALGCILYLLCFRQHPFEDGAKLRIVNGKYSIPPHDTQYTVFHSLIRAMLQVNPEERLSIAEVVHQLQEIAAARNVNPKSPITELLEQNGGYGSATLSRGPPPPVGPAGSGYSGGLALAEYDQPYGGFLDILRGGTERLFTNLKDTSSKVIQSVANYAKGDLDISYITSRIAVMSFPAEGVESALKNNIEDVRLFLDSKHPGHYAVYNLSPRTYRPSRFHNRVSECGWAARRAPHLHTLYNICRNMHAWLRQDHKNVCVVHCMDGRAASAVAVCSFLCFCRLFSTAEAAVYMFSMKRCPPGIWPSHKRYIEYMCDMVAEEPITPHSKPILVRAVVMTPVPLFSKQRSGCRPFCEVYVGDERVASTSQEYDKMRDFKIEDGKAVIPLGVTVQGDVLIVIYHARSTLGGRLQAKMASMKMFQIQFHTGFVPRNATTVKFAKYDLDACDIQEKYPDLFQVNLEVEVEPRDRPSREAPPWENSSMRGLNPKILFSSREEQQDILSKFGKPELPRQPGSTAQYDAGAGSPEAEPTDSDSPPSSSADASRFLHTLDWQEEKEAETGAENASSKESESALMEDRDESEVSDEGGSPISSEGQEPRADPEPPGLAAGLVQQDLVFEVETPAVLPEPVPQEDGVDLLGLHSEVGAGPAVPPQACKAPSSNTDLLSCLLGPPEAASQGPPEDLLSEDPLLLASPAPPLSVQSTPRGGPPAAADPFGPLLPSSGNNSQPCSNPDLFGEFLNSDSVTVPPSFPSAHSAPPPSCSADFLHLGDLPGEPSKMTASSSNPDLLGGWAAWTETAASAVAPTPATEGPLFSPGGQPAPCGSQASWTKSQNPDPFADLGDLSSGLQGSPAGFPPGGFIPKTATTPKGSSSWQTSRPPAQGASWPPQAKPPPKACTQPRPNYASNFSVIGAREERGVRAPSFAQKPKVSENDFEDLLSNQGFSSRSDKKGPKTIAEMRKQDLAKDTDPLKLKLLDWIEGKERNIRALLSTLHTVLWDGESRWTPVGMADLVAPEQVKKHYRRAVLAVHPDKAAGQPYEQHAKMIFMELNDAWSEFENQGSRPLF

[3] = target: Protein kinase C beta type (Homo sapiens, UniProt P05771)
[4] = target: T2, Inhibitor of nuclear factor kappa-B kinase subunit alpha (Homo sapiens) (UniProt O15111); assay: Selectivity interaction (KinomeScan (DiscoverX)) EUB0000595a CHUK; details: at 10 µM
T2 sequence (whole entry): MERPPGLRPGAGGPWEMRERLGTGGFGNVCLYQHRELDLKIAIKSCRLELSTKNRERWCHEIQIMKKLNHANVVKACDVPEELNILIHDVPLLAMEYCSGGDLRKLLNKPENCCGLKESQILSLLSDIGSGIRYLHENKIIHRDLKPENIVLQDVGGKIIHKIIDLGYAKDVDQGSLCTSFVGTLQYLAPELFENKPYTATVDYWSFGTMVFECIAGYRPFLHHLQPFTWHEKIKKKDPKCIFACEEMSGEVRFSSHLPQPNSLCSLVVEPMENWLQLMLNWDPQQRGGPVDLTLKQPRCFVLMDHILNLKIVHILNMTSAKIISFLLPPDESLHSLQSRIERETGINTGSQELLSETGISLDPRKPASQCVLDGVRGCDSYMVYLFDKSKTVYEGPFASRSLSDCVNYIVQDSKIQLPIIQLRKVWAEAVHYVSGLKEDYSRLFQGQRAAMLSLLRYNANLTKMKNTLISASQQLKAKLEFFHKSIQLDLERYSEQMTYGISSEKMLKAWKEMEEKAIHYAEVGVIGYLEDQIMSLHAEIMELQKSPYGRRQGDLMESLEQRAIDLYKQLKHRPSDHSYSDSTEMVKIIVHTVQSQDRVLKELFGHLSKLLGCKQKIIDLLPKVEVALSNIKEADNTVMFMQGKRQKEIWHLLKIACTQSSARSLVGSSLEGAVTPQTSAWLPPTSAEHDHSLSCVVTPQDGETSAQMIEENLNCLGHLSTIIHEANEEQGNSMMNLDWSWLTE

[5] = target: T3, Discoidin domain-containing receptor 2 (Homo sapiens) (UniProt Q16832); assay: Selectivity interaction (KinomeScan (DiscoverX)) EUB0000618a DDR2; details: at 10 µM
T3 sequence (whole entry): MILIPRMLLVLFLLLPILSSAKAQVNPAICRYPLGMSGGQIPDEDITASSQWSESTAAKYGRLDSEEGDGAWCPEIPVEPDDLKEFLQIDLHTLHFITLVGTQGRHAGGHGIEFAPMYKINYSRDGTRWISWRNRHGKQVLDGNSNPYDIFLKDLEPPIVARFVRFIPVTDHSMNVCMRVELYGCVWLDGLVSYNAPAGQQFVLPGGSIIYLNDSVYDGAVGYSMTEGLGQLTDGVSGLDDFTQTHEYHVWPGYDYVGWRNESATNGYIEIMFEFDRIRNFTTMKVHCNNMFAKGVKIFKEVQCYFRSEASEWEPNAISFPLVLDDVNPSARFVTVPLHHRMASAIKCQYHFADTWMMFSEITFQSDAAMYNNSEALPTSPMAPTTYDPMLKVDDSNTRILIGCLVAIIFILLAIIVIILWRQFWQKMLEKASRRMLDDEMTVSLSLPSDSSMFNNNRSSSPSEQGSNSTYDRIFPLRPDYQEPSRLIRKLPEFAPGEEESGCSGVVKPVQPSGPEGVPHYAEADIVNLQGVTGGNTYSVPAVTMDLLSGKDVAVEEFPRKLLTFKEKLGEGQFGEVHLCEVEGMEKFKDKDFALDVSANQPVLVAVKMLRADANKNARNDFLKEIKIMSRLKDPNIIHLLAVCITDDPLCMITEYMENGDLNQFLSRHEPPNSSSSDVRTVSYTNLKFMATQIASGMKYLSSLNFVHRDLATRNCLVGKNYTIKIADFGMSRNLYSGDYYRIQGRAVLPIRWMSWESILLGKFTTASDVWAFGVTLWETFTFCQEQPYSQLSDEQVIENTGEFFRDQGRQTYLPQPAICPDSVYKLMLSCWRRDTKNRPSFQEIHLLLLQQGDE

Chain of ALK tyrosine kinase receptor (Q9UM73 19-1620 limits assumed): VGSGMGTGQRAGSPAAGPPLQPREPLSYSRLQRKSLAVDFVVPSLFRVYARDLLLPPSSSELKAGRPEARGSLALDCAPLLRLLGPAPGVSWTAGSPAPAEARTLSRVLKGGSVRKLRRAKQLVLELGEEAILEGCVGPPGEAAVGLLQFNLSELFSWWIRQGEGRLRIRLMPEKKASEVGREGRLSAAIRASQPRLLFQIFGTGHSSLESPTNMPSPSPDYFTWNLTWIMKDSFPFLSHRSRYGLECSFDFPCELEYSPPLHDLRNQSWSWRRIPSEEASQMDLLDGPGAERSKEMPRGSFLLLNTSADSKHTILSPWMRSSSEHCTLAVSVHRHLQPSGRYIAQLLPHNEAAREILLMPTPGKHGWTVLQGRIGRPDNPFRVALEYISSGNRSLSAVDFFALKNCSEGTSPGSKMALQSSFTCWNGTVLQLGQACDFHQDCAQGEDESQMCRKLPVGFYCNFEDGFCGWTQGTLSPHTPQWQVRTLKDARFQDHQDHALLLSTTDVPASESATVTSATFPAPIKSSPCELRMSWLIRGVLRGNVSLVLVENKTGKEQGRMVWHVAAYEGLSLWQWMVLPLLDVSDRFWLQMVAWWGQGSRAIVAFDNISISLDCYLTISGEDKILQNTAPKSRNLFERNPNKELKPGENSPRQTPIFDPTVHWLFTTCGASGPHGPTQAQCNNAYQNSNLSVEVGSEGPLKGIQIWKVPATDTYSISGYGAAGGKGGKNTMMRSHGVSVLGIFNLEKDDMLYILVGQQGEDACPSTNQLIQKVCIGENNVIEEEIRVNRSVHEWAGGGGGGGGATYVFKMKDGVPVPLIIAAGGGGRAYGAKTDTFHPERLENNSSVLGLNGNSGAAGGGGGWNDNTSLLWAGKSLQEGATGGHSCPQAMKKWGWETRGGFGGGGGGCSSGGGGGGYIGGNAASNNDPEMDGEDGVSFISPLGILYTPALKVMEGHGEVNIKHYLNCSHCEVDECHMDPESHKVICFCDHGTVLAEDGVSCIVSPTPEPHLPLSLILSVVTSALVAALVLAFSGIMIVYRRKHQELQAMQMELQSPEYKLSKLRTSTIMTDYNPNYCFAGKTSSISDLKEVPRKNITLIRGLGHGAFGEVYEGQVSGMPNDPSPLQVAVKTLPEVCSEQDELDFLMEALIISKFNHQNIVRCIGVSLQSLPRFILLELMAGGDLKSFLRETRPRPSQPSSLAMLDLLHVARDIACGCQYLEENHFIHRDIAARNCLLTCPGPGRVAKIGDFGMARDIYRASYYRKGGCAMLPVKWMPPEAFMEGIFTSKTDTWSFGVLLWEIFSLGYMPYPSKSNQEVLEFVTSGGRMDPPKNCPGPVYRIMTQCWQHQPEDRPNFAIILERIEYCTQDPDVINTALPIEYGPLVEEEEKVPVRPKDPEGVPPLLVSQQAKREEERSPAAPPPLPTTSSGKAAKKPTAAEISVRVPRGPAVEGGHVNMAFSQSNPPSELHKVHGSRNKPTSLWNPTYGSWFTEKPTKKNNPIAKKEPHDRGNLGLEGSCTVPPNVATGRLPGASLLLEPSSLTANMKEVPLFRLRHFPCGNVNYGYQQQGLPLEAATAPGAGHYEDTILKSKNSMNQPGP
Chain of Protein kinase C beta type (P05771 whole entry): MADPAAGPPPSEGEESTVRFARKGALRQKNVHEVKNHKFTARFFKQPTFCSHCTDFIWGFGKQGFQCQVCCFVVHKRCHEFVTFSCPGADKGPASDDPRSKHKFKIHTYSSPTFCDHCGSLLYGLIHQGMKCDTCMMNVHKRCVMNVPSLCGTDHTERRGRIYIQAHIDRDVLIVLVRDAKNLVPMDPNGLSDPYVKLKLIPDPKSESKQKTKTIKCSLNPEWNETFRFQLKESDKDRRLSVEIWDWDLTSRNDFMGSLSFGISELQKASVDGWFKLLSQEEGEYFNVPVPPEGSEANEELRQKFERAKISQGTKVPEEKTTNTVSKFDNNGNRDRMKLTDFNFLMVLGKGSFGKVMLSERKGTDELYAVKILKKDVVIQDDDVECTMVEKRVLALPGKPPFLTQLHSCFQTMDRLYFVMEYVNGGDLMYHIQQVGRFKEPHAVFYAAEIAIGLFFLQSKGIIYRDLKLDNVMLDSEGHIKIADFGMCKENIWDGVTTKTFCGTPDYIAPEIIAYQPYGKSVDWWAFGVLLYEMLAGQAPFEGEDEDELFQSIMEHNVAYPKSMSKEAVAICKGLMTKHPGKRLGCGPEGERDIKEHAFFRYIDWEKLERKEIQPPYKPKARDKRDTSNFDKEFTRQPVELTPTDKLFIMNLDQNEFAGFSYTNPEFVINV

- % of control [1]: 166%
SMILES: CC(=O)Nc1cccc(-n2c(=O)n(C3CC3)c(=O)c3c(Nc4ccc(I)cc4F)n(C)c(=O)c(C)c32)c1

SMILES: CN(C)C/C=C/C(=O)Nc1ccc(C(=O)N2CCCC(Nc3ncc(Cl)c(-c4c[nH]c5ccccc45)n3)C2)cc1 (stereo not given)
- % of control [2]: 93%

- IC50 [3]: > 10 µM
SMILES: CCc1cccc(CC)c1NC(=O)c1nn(C)c2c1CCc1cnc(Nc3ccc(C(=O)NC4CCN(C)CC4)cc3OC(F)(F)F)nc1-2

SMILES: COCC(=O)NC/C=C/c1ccc2ncnc(Nc3ccc(Oc4ccc(C)nc4)c(C)c3)c2c1 [CP-724714]
- % of control [4]: 100%

SMILES: O[C@H]1CC[C@H](Nc2ncc3nc(Nc4c(F)cc(F)cc4F)n([C@H]4CCOC4)c3n2)CC1
- % of control [5]: 89%
